Results published in US20030212034A1, “Method of treatment of obesity and paralyzed muscle and ergogenic aids” (priority 2002, published 2003).

Assays:
Assay type in all cases: in vivo, rat
[1] = Food intake, body weight and organ weights after 4 weeks of daily AICAR injection
Method: (§1) To determine the effect of chronic injection of AICAR on muscle enyzme activities or expression and on muscle GLUT4, rats were injected subcutaneously (between 8 and 10 a.m.) with AICAR (1 mg/g) or saline vehicle daily for 28±1 days in succession. Beginning with the first injection, controls were pair fed with AICAR-injected rats. Rats were anesthetized by intraperitoneal injection of pentobarbital sodium 22-25 hours after the last AICAR injection and the white and red regions of the quadriceps and the soleus muscles were removed and frozen as described above. Muscles were kept frozen at −70° C. until analyzed. Liver, heart, kidney, and fat pads were weighed.

[2] = tested on: acetyl-CoA carboxylase (ACC); test: Acetyl-CoA carboxylase activity at 0.2 mM citrate in muscle after s.c. AICAR injection; details: for ACC: at 0.2 mM citrate
Method: (§2) Three days prior to the experiment, jugular cathethers were installed and exteriorized on the back of the neck to allow rapid anesthesia of the rat and rapid blood and tissue collection. Rats were then injected with AICAR (1 mg/g body wt) subcutaneously in sterile 0.9% NaCl or were given 0.9% NaCl (n=6 rats per group). One hour after the subcutaneous injection, rats were anesthetized by intravenous injection of pentobarbital sodium (4.8 mg/100 g body wt). The superficial white and the deep red regions of the quadriceps muscles, and the soleus muscles were quickly removed and frozen with stainless steel clamps at liquid nitrogen temperature.
(§3) Resuspended ammonium sulfate precipitates of tissue homogenates were analyzed for AMPK activity and acetyl-CoA carboxylase activity as described previously. Li, B., et al. J. Biol. Chem. 274:17534-17540, 1999; Winder, W. W., & D. G. Hardie Am. J. Physiol. 270:E299-E304, 1996. […] ACC activity at 0.2 mM citrate provides some indication of the in vivo activity of AMPK, since ACC is a target for phosphorylation of AMPK. ACC activity has previously been reported to decrease in response to phosphorylation by AMPK. Winder, W. W., & D. G. Hardie Am. J. Physiol. 270:E299-E304, 1996. The acute experiment was also repeated on rats treated with AICAR or saline for 4 weeks to see if the responses of AMPK and ACC to AICAR persisted for the entire treatment period. In both experiments ATP and CP were measured on neutralized perchloric acid extracts of muscle.

[3] = tested on: AMP-activated protein kinase (AMPK); test: AMPK activity in ammonium sulfate precipitates of muscle homogenates after s.c. AICAR injection
Method: as §2, §3

succinate dehydrogenase = test: Muscle succinate dehydrogenase activity after chronic AICAR injection; details: AICAR 1 mg/g daily 4 wk, FIG. 4
Method: as §1
For enzyme activity measurements, 10% homogenates were made from the respective muscles in 175 mM KCl, 10 mM GSH, 2 mM EDTA, pH 7.4. This homogenate was frozen and thawed 3 times and mixed thoroughly prior to enzymatic measurements. For succinate dehydrogenase and lactate dehydrogenase, an aliquot of the homogenate was centrifuged at 700×g for 10 min at 4° C. The remainder of the assays were performed on aliquots and dilutions of the mixed whole homogenate. Assays were performed by the following methods: citrate synthase, succinate dehydrogenase, the mitochondrial fraction of malate dehydrogenase, hexokinase, lactate dehydrogenase, carnitine palmitoyl transferase and hydroxyacyl-CoA dehydrogenase. […]

hexokinase = test: Muscle hexokinase activity after chronic AICAR injection; details: AICAR 1 mg/g 4 weeks, FIG. 5
Method: as §1
(§4) For enzyme activity measurements, 10% homogenates were made from the respective muscles in 175 mM KCl, 10 mM GSH, 2 mM EDTA, pH 7.4. This homogenate was frozen and thawed 3 times and mixed thoroughly prior to enzymatic measurements. For succinate dehydrogenase and lactate dehydrogenase, an aliquot of the homogenate was centrifuged at 700×g for 10 min at 4° C. The remainder of the assays were performed on aliquots and dilutions of the mixed whole homogenate. Assays were performed by the following methods: citrate synthase, succinate dehydrogenase, the mitochondrial fraction of malate dehydrogenase, hexokinase, lactate dehydrogenase, carnitine palmitoyl transferase and hydroxyacyl-CoA dehydrogenase. Srere, P. A. Methods in Enzymology 13:3-6, 1969; King, T. E. Methods Enzymol 10:322-335, 1967; Shonk, C. E. & G. E. Boxer, Cancer Res. 24:709-721, 1964; Uyeda, K., & E. Racker, J. Biol Chem 240:4682-4688, 1965; Pesce, A., et al. J. Biol. Chem. 239:1753-1761, 1964; Baldwin, K. M., et al. Am. J. Physiol 222:373-378, 1972; Mole, P. A., et al. J. Clin. Invest. 50:2323-2330, 1971; Kobayashi, A. et al. J. Biochem. 119:775-782, 1996.

[4] = Muscle weights in 3-day denervated and contralateral control muscles; details: same in both treatment groups
Method: Rats were anesthetized with ether and the sciatic nerve of the right hindlimb was severed. The left hindlimb was sham operated to serve as a control. Both skin wounds were closed with a metal clips. The rats used for the acute study were also implanted with a jugular catheter which was exteriorized on the back of the neck at the time of denervation for rapid administration of anesthesia.
Rats were injected either with AICAR (1 mg in 0.9% NaCl/g body weight) or a 0.9% NaCl solution ˜0, ˜24, and ˜48 hours after denervation and were then sacrificed ˜72 hours after denervation without injection. Rats were anesthetized with sodium pentobarbital (4.8 mg/100 g. body weight), soleus and gastrocnemius muscles from both sham and denervated sides were extracted, and muscles were quick frozen in liquid nitrogen and stored for analysis.

[5] = tested on: hydroxyacyl-CoA dehydrogenase; test: Muscle hydroxyacyl-CoA dehydrogenase activity after chronic AICAR injection; details: chronic AICAR 1 mg/g daily 4 wk
Method: as §1, §4

lactate dehydrogenase = test: Muscle lactate dehydrogenase activity after chronic AICAR injection; details: chronic AICAR 1 mg/g daily 4 wk
Method: as §1, §4

[6] = AICAR 1 mg/g s.c. daily for four weeks
[7] = AICAR-injected rats, single injection, 0.2 mM citrate
[8] = red quadriceps, 60 min after AICAR injection, after daily injections for 4 wk
[9] = red quadriceps, 60 min after single AICAR injection 1 mg/g s.c., no chronic treatment
[10] = soleus, 60 min after AICAR injection, after daily injections for 4 wk
[11] = soleus, 60 min after single AICAR injection 1 mg/g s.c., no chronic treatment
[12] = white quadriceps, 60 min after AICAR injection, after daily injections for 4 wk
[13] = white quadriceps, 60 min after single AICAR injection 1 mg/g s.c., no chronic treatment

## NC(=O)c1ncn([C@@H]2O[C@H](CO)[C@@H](O)[C@H]2O)c1N [AICAR, 5-aminoimidazole-4-carboxamide-1-β-D-ribofuranoside]
[1]; [6]
  Epididymal Fat Pad weight: 1.21 ± 0.10 g
  Heart weight: 0.80 ± 0.02 g
  Kidney weight: 0.99 ± 0.02 g
  Liver weight: 16.0 ± 0.50 g
  Retroperitoneal Fat Pad weight: 0.90 ± 0.08 g
[1]; AICAR 1 mg/g s.c. daily for four weeks, pair-fed controls
  Body Weight: 254 ± 5 g
[1]; AICAR for 4 weeks, FIG. 1
  food intake and body weight vs saline injected rats: No statistically significant differences
[2]; [7]
  ACC activity in white quadriceps relative to that seen in red quadriceps: 61%
  ACC activity in white quadriceps relative to that seen in soleus: 44%
[2]; [8]
  ACC: 0.21 ± 0.01 nmol/g/min
[2]; [9]
  ACC: 0.19 ± 0.02 nmol/g/min
[2]; [10]
  ACC: 0.28 ± 0.01 nmol/g/min
[2]; [11]
  ACC: 0.19 ± 0.02 nmol/g/min
[2]; [12]
  ACC: 0.12 ± 0.01 nmol/g/min
[2]; [13]
  ACC: 0.08 ± 0.02 nmol/g/min
[3]; [8]
  AMPK: 200 ± 17 pmol/g/min
[3]; [9]
  AMPK: 405 ± 62 pmol/g/min
[3]; [10]
  AMPK: 191 ± 22 pmol/g/min
[3]; [11]
  AMPK: 447 ± 42 pmol/g/min
[3]; [12]
  AMPK: 258 ± 32 pmol/g/min
[3]; [13]
  AMPK: 1,102 ± 80 pmol/g/min
Succinate dehydrogenase; soleus
  succinate dehydrogenase activity vs controls: all increased
Succinate dehydrogenase; white quadriceps
  succinate dehydrogenase activity vs controls: all increased
hexokinase; red region of the quadriceps
  hexokinase activity vs saline-injected controls: significantly increased
hexokinase; soleus
  hexokinase activity vs saline-injected controls: increase in hexokinase activity in soleus was statistically significant
hexokinase; white region of the quadriceps
  hexokinase activity vs saline-injected controls: significantly increased
[4]; gastrocnemius
  loss of muscle mass after 3 days of denervation: ~14%
[4]; soleus
  loss of muscle mass after 3 days of denervation: ~20%
[5]; red quadriceps
  HADH activity: 9.0 ± 0.4 µmol/g/min
[5]; soleus
  HADH activity: 4.6 ± 0.4 µmol/g/min
[5]; white quadriceps
  HADH activity: 4.6 ± 0.3 µmol/g/min
Lactate dehydrogenase; red quadriceps
  LDH activity: 557 ± 26 µmol/g/min
Lactate dehydrogenase; soleus
  LDH activity: 162 ± 7 µmol/g/min
Lactate dehydrogenase; white quadriceps
  LDH activity: 685 ± 20 µmol/g/min
